ChEMBL document CHEMBL1201862, “PubChem BioAssay data set” (2004)
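Briefly, cells in 96-well plates were exposed to five compound concentrations for 48 h, and endpoints were estimated by linear interpolation. GI50 is the concentration that inhibits growth by half.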 The source made the active and inactive calls. No stated cut-off is given here; in the data, active = GI50 up to about 1.1 µM and inactive = higher.

Experiments:
Test in all cases: growth of human tumour cells (NCI), 48 h
MOLT-4 = tested on: MOLT-4
UO-31 = tested on: UO-31
UACC-62 = tested on: UACC-62
SNB-19 = tested on: SNB-19
MDA-MB-435 = tested on: MDA-MB-435
NCI-H522 = tested on: NCI-H522
A549 = tested on: A549
ACHN = tested on: ACHN
OVCAR-3 = tested on: OVCAR-3
TK-10 = tested on: TK-10
SF-295 = tested on: SF-295
LOX IMVI = tested on: LOX IMVI
NCI-H226 = tested on: NCI-H226
UACC-257 = tested on: UACC-257
OVCAR-8 = tested on: OVCAR-8
OVCAR-5 = tested on: OVCAR-5
Malme-3M = tested on: Malme-3M
IGROV-1 = tested on: IGROV-1
SR = tested on: SR
HCT-116 = tested on: HCT-116

Compound | GI50 (MOLT-4) | GI50 (UO-31) | GI50 (UACC-62) | GI50 (SNB-19) | GI50 (MDA-MB-435) | GI50 (NCI-H522) | GI50 (A549) | GI50 (ACHN) | GI50 (OVCAR-3) | GI50 (TK-10) | GI50 (SF-295) | GI50 (LOX IMVI) | GI50 (NCI-H226) | GI50 (UACC-257) | GI50 (OVCAR-8) | GI50 (OVCAR-5) | GI50 (Malme-3M) | GI50 (IGROV-1) | GI50 (SR) | GI50 (HCT-116)
COc1ccc(/C=C/C(=O)NCC(NC(=O)/C=C/c2ccc(OC)c(OC)c2)C(=O)O)cc1OC (stereo not given) | > 100 µM (inactive) | > 100 µM (inactive) | > 100 µM (inactive) | > 100 µM (inactive) | > 100 µM (inactive) | > 100 µM (inactive) | > 100 µM (inactive) | > 100 µM (inactive) | > 100 µM (inactive) | > 100 µM (inactive) | > 100 µM (inactive) | > 100 µM (inactive) | > 100 µM (inactive) | > 100 µM (inactive) | > 100 µM (inactive) | > 100 µM (inactive) | > 100 µM (inactive) | < 0.01 µM (active) | > 100 µM (inactive) | > 100 µM (inactive)
c1ccc(C2(c3ccccc3)S/C(=C3/SC(c4ccccc4)(c4ccccc4)c4ccccc43)c3ccccc32)cc1 | > 100 µM (inactive) | > 100 µM (inactive) | > 100 µM (inactive) | > 100 µM (inactive) | > 100 µM (inactive) | > 100 µM (inactive) | > 100 µM (inactive) | > 100 µM (inactive) | > 100 µM (inactive) | > 100 µM (inactive) | > 100 µM (inactive) | > 100 µM (inactive) | > 100 µM (inactive) | > 100 µM (inactive) | > 100 µM (inactive) | > 100 µM (inactive) | > 100 µM (inactive) | > 100 µM (inactive) | > 100 µM (inactive) | > 100 µM (inactive)
Cc1ccc(S(=O)(=O)SC(C)(C)C)cc1 | 18.2 µM (inactive) | > 100 µM (inactive) | 19.9 µM (inactive) | > 100 µM (inactive) | 31.4 µM (inactive) | 14.7 µM (inactive) | > 100 µM (inactive) | 38.5 µM (inactive) | 20.9 µM (inactive) | 40.3 µM (inactive) | > 100 µM (inactive) | 21.9 µM (inactive) | > 86.7 µM (inactive) | 21.6 µM (inactive) | 21.3 µM (inactive) | > 48.4 µM (inactive) | > 44.4 µM (inactive) | 18.9 µM (inactive) | 12.2 µM (inactive) | 17.6 µM (inactive)
O=C(O)C1CCN(Cc2oc(CO)cc(=O)c2O)C1 (stereo not given) | > 100 µM (inactive) | > 100 µM (inactive) | > 100 µM (inactive) | > 100 µM (inactive) | > 100 µM (inactive) | > 100 µM (inactive) | > 100 µM (inactive) | > 100 µM (inactive) | > 100 µM (inactive) | > 100 µM (inactive) | > 100 µM (inactive) | > 100 µM (inactive) | > 100 µM (inactive) | > 100 µM (inactive) | > 100 µM (inactive) | > 100 µM (inactive) | > 100 µM (inactive) | > 100 µM (inactive) | > 100 µM (inactive) | > 100 µM (inactive)
O=C(N/N=C\c1ccc(Cl)cc1)Nc1cccc2ccccc12 | 5.61 µM (inactive) | 2.1 µM (inactive) | 9.48 µM (inactive) | 2.66 µM (inactive) | 2 µM (inactive) | 4.83 µM (inactive) | 6.71 µM (inactive) | 2.37 µM (inactive) | 1.54 µM (inactive) | 3.32 µM (inactive) | 2.52 µM (inactive) | 4.49 µM (inactive) | 10.4 µM (inactive) | 8.75 µM (inactive) | 5.2 µM (inactive) | 25.8 µM (inactive) | 4.24 µM (inactive) | 3.49 µM (inactive) | 3.16 µM (inactive) | 3.04 µM (inactive)
N#C[BH2-][n+]1cn(C2CC(OP(=O)(O)OCC3OC(n4cnc5c(=O)[nH]c(N)nc54)CC3O)C(CO)O2)c2nc(N)[nH]c(=O)c21 (stereo not given) | 81.8 µM (inactive) | > 100 µM (inactive) | > 100 µM (inactive) | > 100 µM (inactive) | > 100 µM (inactive) | > 100 µM (inactive) | > 100 µM (inactive) | > 100 µM (inactive) | > 100 µM (inactive) | > 100 µM (inactive) | 74.3 µM (inactive) | 55.5 µM (inactive) | > 100 µM (inactive) | > 100 µM (inactive) | > 100 µM (inactive) | > 100 µM (inactive) | 70.5 µM (inactive) | > 100 µM (inactive) | > 100 µM (inactive) | > 100 µM (inactive)
COc1cc(/C=C2\C[C@H]3[C@@H]4CC=C5C[C@@H](N6CCCC6)CC[C@]5(C)[C@H]4CC[C@]3(C)[C@H]2O)cc(OC)c1OC | 8.11 µM (inactive) | 2.8 µM (inactive) | 18.6 µM (inactive) | 18.8 µM (inactive) | 4.45 µM (inactive) | 13.4 µM (inactive) | 10.6 µM (inactive) | 15.8 µM (inactive) | 15.5 µM (inactive) | 20.3 µM (inactive) | 13 µM (inactive) | 8.57 µM (inactive) | 21.2 µM (inactive) | 15 µM (inactive) | 11 µM (inactive) | 8.79 µM (inactive) | 11.7 µM (inactive) | 15.9 µM (inactive) | 2.63 µM (inactive) | 13.2 µM (inactive)
O=c1c2c(no[n+]2[O-])c2ccccc2n1-c1ccccc1 | 3.03 µM (inactive) | 11.9 µM (inactive) | 4.05 µM (inactive) | 14.5 µM (inactive) | 5.43 µM (inactive) | 1.73 µM (inactive) | 17.9 µM (inactive) | 11.4 µM (inactive) | 12.8 µM (inactive) | 17.3 µM (inactive) | 14.8 µM (inactive) | 1.69 µM (inactive) | 9.93 µM (inactive) | 13 µM (inactive) | 6.18 µM (inactive) | 14.8 µM (inactive) | 5.7 µM (inactive) | 3.75 µM (inactive) | 2.82 µM (inactive) | 2.17 µM (inactive)
COC1(CC[C@@H](C)COC2OC(CO)C(O)C(O)C2O)O[C@H]2C[C@H]3[C@@H]4CC=C5C[C@@H](OC6OC(CO)C(O)C(OC7OC(CO)C(O)C(O)C7O)C6OC6OC(C)C(O)C(O)C6O)CC[C@]5(C)[C@H]4CC[C@]3(C)[C@H]2[C@@H]1C (stereo not given in full) | 16 µM (inactive) | 4.5 µM (inactive) | 3.19 µM (inactive) | 6.37 µM (inactive) | 2.77 µM (inactive) | 4.62 µM (inactive) | 2.68 µM (inactive) | 14.5 µM (inactive) | 16.8 µM (inactive) | 19.3 µM (inactive) | 3.48 µM (inactive) | 2.8 µM (inactive) | 9.95 µM (inactive) | 11 µM (inactive) | 8.77 µM (inactive) | 7.67 µM (inactive) | 3.11 µM (inactive) | 7.24 µM (inactive) | 23.5 µM (inactive) | 6.64 µM (inactive)
CC1=Nc2c(O)nc(S)nc2NC(c2c(Cl)cccc2Cl)C1 (stereo not given) | 0.646 µM (active) | 5.19 µM (inactive) | 1.78 µM (inactive) | 2.99 µM (inactive) | 1.49 µM (inactive) | 1.98 µM (inactive) | 3.43 µM (inactive) | 4.86 µM (inactive) | 1.58 µM (inactive) | 10.1 µM (inactive) | 1.61 µM (inactive) | 0.766 µM (active) | 5.21 µM (inactive) | 3.07 µM (inactive) | 0.877 µM (active) | 5.83 µM (inactive) | 6.11 µM (inactive) | 2.36 µM (inactive) | 0.372 µM (active) | 0.76 µM (active)
COc1cc(CCNC2=CC(=O)c3nc[nH]c3C2=O)ccc1O | 32.6 µM (inactive) | 40.3 µM (inactive) | 19.2 µM (inactive) | 18.2 µM (inactive) | 17.6 µM (inactive) | 22.7 µM (inactive) | 26.6 µM (inactive) | 30.3 µM (inactive) | 3.16 µM (inactive) | 36.1 µM (inactive) | 28.4 µM (inactive) | 19 µM (inactive) | 31.5 µM (inactive) | 19.8 µM (inactive) | 19.6 µM (inactive) | 18.6 µM (inactive) | 13.1 µM (inactive) | 23.2 µM (inactive) | 30.7 µM (inactive) | 19.6 µM (inactive)
